Measurements: patent publication US20180353457A1, “ABIETANE DITERPENOID 7-ACETOXYROYLEANONES FOR USE IN CANCER TREATMENT” (University of South Carolina, priority 2017, published 2018)

System: leukemia cell lines
Test: NCI-60 one dose screen, leukemia cell lines
Format: cell-based
Conditions: 10 μM, each leukemia cell line
Procedure: One dose and five dose cytotoxicity screening was performed by the NCI-60 screening program of the National Institutes of Health (NIH), which is known in the art and available from the NIH. The NCI-60 panel is a collection of cancer cell lines, from various diverse tumors, which was developed in the 1980s by the National Cancer Institute to aid screening efforts for cytotoxic or cytostatic compounds.
In these screens, 60 cell lines, were utilized to determine the cytotoxic effect of small molecules, natural products, and other drug candidates. […]
The five dose screen was performed by creating four 10-fold dilutions of the highest concentration of the diluted 7-acetoxyroyleanone made in the same manner as the one dose screen. […] The bound stain was then dissolved in 10 mM trizma base and the absorbance was read using an automated plate reader at 515 nm. […]

## CC(=O)O[C@@H]1C[C@H]2C(C)(C)CCC[C@]2(C)C2=C1C(=O)C(C(C)C)=C(O)C2=O [7-acetoxyroyleanone]
  cell death versus growth inhibition: did not appear to induce cell death, but rather growth inhibition
